Source: patent publication US8959984B2, “Proteome-wide quantification of small molecule binding to cellular target proteins” (priority 2007, dated 2015)
Where two headings read alike, the source gives them in different places.

Legend:
[1] = biological target: GSK3A (Homo sapiens, UniProt P49840); assay: binding to immobilized V16742 (IVA1/IVA2, HeLa lysate, MS)
[2] = biological target: T1, BLMH (Homo sapiens, UniProt Q13867); assay: gefitinib competition against AX14596 beads (HeLa lysate, SILAC MS); format: binding
T1 construct: endogenous in cells; host or cells: HeLa S3
T1 sequence (Q13867 1-455): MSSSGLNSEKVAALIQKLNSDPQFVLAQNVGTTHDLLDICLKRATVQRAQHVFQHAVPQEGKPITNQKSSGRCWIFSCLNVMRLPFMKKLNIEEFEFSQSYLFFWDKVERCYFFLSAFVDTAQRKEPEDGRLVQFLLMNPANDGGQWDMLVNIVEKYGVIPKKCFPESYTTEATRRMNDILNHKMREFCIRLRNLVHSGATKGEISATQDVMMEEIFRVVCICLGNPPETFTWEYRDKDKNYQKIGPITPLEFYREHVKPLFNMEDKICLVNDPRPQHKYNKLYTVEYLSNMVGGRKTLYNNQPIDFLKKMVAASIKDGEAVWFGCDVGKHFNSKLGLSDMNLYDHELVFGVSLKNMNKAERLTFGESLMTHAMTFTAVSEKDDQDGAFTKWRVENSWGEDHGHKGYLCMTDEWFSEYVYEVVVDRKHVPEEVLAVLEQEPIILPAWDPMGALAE

[3] = biological target: SNRPG (Homo sapiens, UniProt P62308)
[4] = tested on: JNK2, RIPK2, ERK2, ROCK2; assay: immunoblot of IVA1/IVA2 eluates from V16742 matrix, HeLa lysate; format: binding, human
Protocol: The proteins retained on the beads were immunoblotted with specific antibodies for JNK2, RIPK2, ERK2 and ROCK2, the targets with affinities ranging from high to very low as identified/predicted by mass spectrometry.
Immunoblotting of affinity chromatography eluates from either IVA1 or IVA2 setting was performed with the following antibodies: Rabbit anti-casein kinase Iα, Rabbit anti-JNK2, Rabbit anti-ROCK-II (all from Cell Signaling Technology, Inc.), anti-GSK3β, anti-RIPK2, anti-GAK, anti-ERK2 (Santa Cruz)

[5] = biological target: T2, CaMKK1 (Homo sapiens, UniProt Q8N5S9); assay: binding to immobilized V16742 (IVA1/IVA2, HeLa lysate, MS)
T2 construct: endogenous in cells; host or cells: HeLa S3

[6] = biological target: T3, Testis expressed sequence 264 protein precursor (Homo sapiens, UniProt Q9Y6I9); assay: as above
T3 construct: endogenous in cells; host or cells: HeLa S3
T3 sequence (Q9Y6I9 1-313): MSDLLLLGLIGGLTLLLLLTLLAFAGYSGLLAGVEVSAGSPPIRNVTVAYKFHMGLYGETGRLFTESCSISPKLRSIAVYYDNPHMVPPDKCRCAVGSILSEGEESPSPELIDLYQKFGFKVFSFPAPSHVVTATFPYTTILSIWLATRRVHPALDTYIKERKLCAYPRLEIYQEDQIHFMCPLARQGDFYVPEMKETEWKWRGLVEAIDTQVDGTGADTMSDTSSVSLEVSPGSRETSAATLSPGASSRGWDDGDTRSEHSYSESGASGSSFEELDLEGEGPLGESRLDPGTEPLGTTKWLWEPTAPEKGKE

[7] = average of two experiments, read-out: Kd Avg

Chain of GSK3A (P49840 whole entry): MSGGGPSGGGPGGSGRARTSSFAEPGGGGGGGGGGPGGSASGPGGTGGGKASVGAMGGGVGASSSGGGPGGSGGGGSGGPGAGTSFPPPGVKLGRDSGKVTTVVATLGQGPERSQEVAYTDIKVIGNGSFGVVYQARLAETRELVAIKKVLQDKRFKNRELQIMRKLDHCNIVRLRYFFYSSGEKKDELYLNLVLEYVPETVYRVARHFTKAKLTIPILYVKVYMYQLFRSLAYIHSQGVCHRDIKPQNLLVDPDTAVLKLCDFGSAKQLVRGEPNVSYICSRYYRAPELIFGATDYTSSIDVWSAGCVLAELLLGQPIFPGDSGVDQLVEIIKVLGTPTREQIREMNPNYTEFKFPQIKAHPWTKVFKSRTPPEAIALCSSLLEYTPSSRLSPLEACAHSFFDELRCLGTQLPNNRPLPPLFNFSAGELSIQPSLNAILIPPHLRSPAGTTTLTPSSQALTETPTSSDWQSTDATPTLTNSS
Chain of SNRPG (P62306 whole entry): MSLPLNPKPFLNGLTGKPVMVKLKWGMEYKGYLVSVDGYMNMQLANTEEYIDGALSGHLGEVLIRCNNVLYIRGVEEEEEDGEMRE
Chain of SNRPG (P62304 whole entry, further chain): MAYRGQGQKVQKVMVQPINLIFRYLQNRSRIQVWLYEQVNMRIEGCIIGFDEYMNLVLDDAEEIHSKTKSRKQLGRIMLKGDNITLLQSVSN
Chain of SNRPG (P62308 whole entry): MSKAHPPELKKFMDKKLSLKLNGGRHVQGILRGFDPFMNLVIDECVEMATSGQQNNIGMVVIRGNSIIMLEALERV
T2 sequence (Q8N5S9 whole entry): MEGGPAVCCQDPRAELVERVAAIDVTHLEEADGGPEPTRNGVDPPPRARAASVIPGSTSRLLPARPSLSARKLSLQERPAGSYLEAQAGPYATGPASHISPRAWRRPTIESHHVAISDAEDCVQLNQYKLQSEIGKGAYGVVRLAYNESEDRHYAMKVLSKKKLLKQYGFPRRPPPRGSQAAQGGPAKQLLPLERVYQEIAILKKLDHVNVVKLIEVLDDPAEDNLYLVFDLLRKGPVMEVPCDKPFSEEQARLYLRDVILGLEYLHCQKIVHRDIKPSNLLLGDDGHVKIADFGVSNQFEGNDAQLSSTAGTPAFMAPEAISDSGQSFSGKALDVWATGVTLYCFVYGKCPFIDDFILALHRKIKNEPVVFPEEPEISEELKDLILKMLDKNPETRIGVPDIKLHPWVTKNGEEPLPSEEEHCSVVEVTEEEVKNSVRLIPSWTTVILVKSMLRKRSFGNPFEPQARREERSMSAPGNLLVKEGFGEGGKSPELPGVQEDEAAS

CC(C)n1c(=O)ccc2cnc(Nc3ccc(OCCN)cc3)nc21 [compound 16742]
Percent bound at 1.87 μM 16742 conc ([1]; EXPERIMENT 1): 7.34% | Percent bound at 8.74 μM 16742 conc ([1]; EXPERIMENT 1): 35.37% | Percent bound at 52 μM 16742 conc ([1]; EXPERIMENT 1): 84.48% | Kd ([1]; EXPERIMENT 1, read-out: Kd): 14.3 µM | Percent bound at 1.87 μM 16742 conc ([1]; EXPERIMENT 2): 4.30% | Percent bound at 8.74 μM 16742 conc ([1]; EXPERIMENT 2): 29.09% | Percent bound at 52 μM 16742 conc ([1]; EXPERIMENT 2): 78.29% | Kd ([1]; EXPERIMENT 2, read-out: Kd): 18.8 µM | Kd ([1]; read-out: Kd Avg): 16.6 µM

COc1cc2ncnc(Nc3ccc(F)c(Cl)c3)c2cc1OCCCN1CCOCC1 [gefitinib]
IC50 [2]: 223 nM | rAVERAGE (10 nM/0 nM Gef.) [2]: 0.82 | rAVERAGE (100 nM/0 nM Gef.) [2]: 0.53 | rAVERAGE (1000 nM/0 nM Gef.) [2]: 0.43 | rAVERAGE (10000 nM/0 nM Gef.) [2]: 0.11 | Ki ([2]; read-out: Ki (Gef)): 77.9 nM | rAVERAGE (10 nM/0 nM Gef.) [3]: 0.65 | rAVERAGE (100 nM/0 nM Gef.) [3]: 1.09 | rAVERAGE (1000 nM/0 nM Gef.) [3]: 0.72 | rAVERAGE (10000 nM/0 nM Gef.) [3]: 0.89

CC(C)n1c(=O)ccc2cnc(Nc3ccc(OCCN)cc3)nc21 [V16742]
interaction of kinases with V16742 matrix, immunoblot [4]: specifically interacted with the V16742 matrix | Percent bound at various 16742 conc ([5]; Experiment 1, 1.87 μM 16742): 2.08% | Percent bound at various 16742 conc ([5]; Experiment 1, 8.74 μM 16742): 10.67% | Percent bound at various 16742 conc ([5]; Experiment 1, 52 μM 16742): 63.34% | Kd ([5]; Experiment 1, read-out: Kd): 37.9 µM | Percent bound at various 16742 conc ([5]; Experiment 2, 1.87 μM 16742): 1.46% | Percent bound at various 16742 conc ([5]; Experiment 2, 8.74 μM 16742): 6.65% | Percent bound at various 16742 conc ([5]; Experiment 2, 52 μM 16742): 47.32% | Kd ([5]; Experiment 2, read-out: Kd): 63.9 µM | Kd [5, 7]: 50.9 µM | Percent bound at various 16742 conc ([6]; Experiment 1, 1.87 μM 16742): 2.22% | Percent bound at various 16742 conc ([6]; Experiment 1, 8.74 μM 16742): 2.55% | Percent bound at various 16742 conc ([6]; Experiment 1, 52 μM 16742): 51.05% | Kd ([6]; Experiment 1, read-out: Kd): 60 µM | Percent bound at various 16742 conc ([6]; Experiment 2, 1.87 μM 16742): 2.11% | Percent bound at various 16742 conc ([6]; Experiment 2, 8.74 μM 16742): 1.91% | Percent bound at various 16742 conc ([6]; Experiment 2, 52 μM 16742): 24.69% | Kd ([6]; Experiment 2, read-out: Kd): 165 µM | Kd [6, 7]: 113 µM
